Consider 1 compound from paper PMC7572767 (Psychopharmacology, 2020).

This experiment has as its target norepinephrine transporter (NET) (Homo sapiens, UniProt P23975). In words: fluorescent substrate uptake inhibition in HEK293 cells stably expressing NET. It counts as cell-based.

SMILES strings stand for the structures. pIC50: −log10 of the molar value.

norepinephrine transporter (NET), sequence (P23975 whole entry): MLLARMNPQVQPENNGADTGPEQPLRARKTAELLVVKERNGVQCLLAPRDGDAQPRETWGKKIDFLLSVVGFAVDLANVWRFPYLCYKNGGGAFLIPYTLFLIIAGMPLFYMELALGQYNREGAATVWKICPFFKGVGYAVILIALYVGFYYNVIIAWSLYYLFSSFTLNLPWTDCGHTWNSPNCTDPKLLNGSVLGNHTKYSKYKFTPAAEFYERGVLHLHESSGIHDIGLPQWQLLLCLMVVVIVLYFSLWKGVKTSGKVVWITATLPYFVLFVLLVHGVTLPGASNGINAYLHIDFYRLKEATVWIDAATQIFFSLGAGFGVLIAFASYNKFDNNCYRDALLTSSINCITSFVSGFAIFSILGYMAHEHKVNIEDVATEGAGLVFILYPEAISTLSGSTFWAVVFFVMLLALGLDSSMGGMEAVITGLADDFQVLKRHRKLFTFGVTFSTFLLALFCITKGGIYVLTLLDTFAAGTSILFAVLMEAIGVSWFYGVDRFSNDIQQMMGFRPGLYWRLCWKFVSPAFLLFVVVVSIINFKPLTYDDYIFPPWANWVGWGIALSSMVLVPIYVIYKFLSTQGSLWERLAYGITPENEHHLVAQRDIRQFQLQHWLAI

By pIC50 is commonly meant the negative decadic logarithm of the IC50, by convention in mol/L. Low values mean a large IC50, high ones a small IC50. The compound `[O-][S@@+](Cc1cncs1)[C@@H](c1ccccc1)c1cccc(Br)c1` [(S, S)-CE-158, 5-(((S)-((S)-(3-bromophenyl)(phenyl)methyl)sulfinyl)methyl)thiazole] gave a pIC50 of 4.92.
